Patent US8231887B2, “Pesticidal compositions” (BASF Corporation, priority 2008, dated 2012)
Several values for one entry are separate records, joined by “and”; a condition that tells them apart may be missing. Equal entries are not always repeated.

Tested on: cockroaches
Experiment: Topical toxicity test of various compounds and/or PD23 mineral oil, dead at 24 h (Example 12)
Assay type: in vivo, Blattella germanica
Settings: for Proportion dead at 24 h: calculated proportion; for increase in mortality when combined with PD23 mineral oil: result in words, compared to the other compounds tested
Description: Toxicity evaluations were performed on 7-14 day old adult male and female German cockroaches (SCJ Strain, S.C. Johnson & Son, Racine, Wis.). Approximately 12 cockroaches were transferred to individual 100×20 mm polystyrene Petri dishes and anesthetized with a 15-25 second exposure to carbon dioxide. The inside edge of each Petri dish was lightly coated with mineral oil plus petroleum jelly in a 1:3 (wt/wt) ratio to minimize escape. Anesthetized cockroaches were positioned with their ventral side up, and a 1 μl drop of the diluted test composition was applied to the area between the meso- and metathoracic legs using a Rainin L-10, 10 μl capacity pipette (Rainin Instrument, LLC, Oakland, Calif.). Five replications of 12 male cockroaches were done for each test composition. Separate tests were done using female cockroaches. Results were evaluated at 24 hours following treatment. Cockroaches were scored as either alive (dorsal side up, active movement when abdomen prodded with dissecting probe) or moribund/dead (dorsal side up and no movement when abdomen prodded or ventral side up and insect unable to right itself).

[1] = compound alone, 0.25 mg, one replicate group per row
[2] = Table 17, composite data, listed as nitromethane (75-52-5) (0.80 mg)

Row | Molecule | # dead at 24 h (Table 17, composite data) | Proportion dead at 24 h (Table 17, composite data) | further results
1 | CC(=O)OCC(COC(C)=O)OC(C)=O [Triacetin (102-76-1) (2.0 mg), Triacetin] | 1 | 0.033 | increase in mortality when combined with PD23 mineral oil: greatest increase in mortality
2 | CC(=O)OC(C)C [Isopropyl acetate (108-21-4) (1.0 mg), Isopropyl acetate] | 3 | 0.150 | 
3 | CC(Cl)(Cl)Cl [Methyl chloroform] |  |  | # dead at 24 h (compound alone, 2.00 mg): 1; Proportion dead at 24 hr (compound alone, 2.00 mg): 0.091 and 0.100
4 | CC(=O)CC(C)C [Methyl isobutyl ketone] | 1 | 0.048 | 
5 | c1ccncc1 [Pyridine (110-86-1) (0.10 mg), Pyridine] | 1 | 0.032 | increase in mortality when combined with PD23 mineral oil: greatest increase in mortality
6 | Cc1ccccc1 [Toluene (108-88-3) (0.90 mg), Toluene] | 0 | 0.000 | 
7 | COC(C)(C)C [Methyl t-butyl ether] | 5 | 0.227 | # dead at 24 h (compound alone, 2.00 mg): 2 and 3; Proportion dead at 24 hr (compound alone, 2.00 mg): 0.300
8 | O=C1CCCO1 [gamma butyrolactone (96-48-0) (0.25 mg), gamma butyrolactone] | 11 | 0.407 | increase in mortality when combined with PD23 mineral oil: greatest increase in mortality
9 | Cc1ccccc1 [Toluene] |  |  | # dead at 24 h (compound alone, 0.90 mg): 0; Proportion dead at 24 hr (compound alone, 0.90 mg): 0.000
10 | CCOCCO [2-ethoxyethanol] | 1 | 0.033 | increase in mortality when combined with PD23 mineral oil: greatest increase in mortality
11 | Diisopropyl biphenyl | 0 | 0.000 | 
12 | COCOC [Dimethoxymethane] |  | 0.000 | pest or weed control at 2 mg (Blattella germanica, topical, 24 h, compound alone, 2.00 mg, read-out: Proportion dead at 24 hr): 0%; # dead at 24 h (compound alone, 2.00 mg): 0; Proportion dead at 24 hr (compound alone, 2.00 mg): 0.000
13 | CCC(C)=O [2-butanone] | 3 | 0.083 | 
14 | CCOCC [diethyl ether] |  |  | # dead at 24 h (compound alone, 2.00 mg): 0; Proportion dead at 24 hr (compound alone, 2.00 mg): 0.000
15 | ClCCl [Dichloromethane] |  | 0.000 | pest or weed control at 1.5 mg (Blattella germanica, topical, 24 h, read-out: Proportion dead at 24 hr): 0%; # dead at 24 h (compound alone, 1.50 mg): 0
16 | CCOCC [diethyl ether (60-29-7) (2.0 mg), diethyl ether] | 0 | 0.000 | 
17 | C1CCOC1 [Tetrahydrofuran] |  |  | # dead at 24 h (compound alone, 0.80 mg): 3; Proportion dead at 24 hr (compound alone, 0.80 mg): 0.300
18 | CN1CCCC1=O [n-methyl pyrrolidone] |  | 0.100 | Proportion dead at 24 h (Table 17, composite data, listed as n-methyl pyrrolidone (872-50-4) (0.10 mg)): 0.500; # dead at 24 h (compound alone, 0.05 mg): 1; # dead at 24 h (compound alone, 0.10 mg): 5
19 | O=C1CCCO1 [gamma butyrolactone] |  |  | # dead at 24 h [1]: 3 and 5; Proportion dead at 24 hr [1]: 0.300 and 0.500
20 | C[N+](=O)[O-] [nitromethane (75-52-5) (0.70 mg), nitromethane] | 0 |  | Proportion dead at 24 h [2]: 0.179; # dead at 24 h [2]: 5; increase in mortality when combined with PD23 mineral oil: greatest increase in mortality
21 | CC(=O)c1ccccc1 [Acetophenone (98-86-2) (0.10 mg), Acetophenone] | 0 |  | increase in mortality when combined with PD23 mineral oil: greatest increase in mortality
22 | OCCOCCO [Di(ethylene) glycol (111-46-6) (0.80 mg), Di(ethylene) glycol] | 6 |  | 
23 | CC(Cl)(Cl)Cl [Methyl chloroform (71-55-6) (2.00 mg), Methyl chloroform] | 2 | 0.095 | 
24 | ClC(Cl)Cl [Chloroform-anhydrous (67-66-3) (2.0 mg), Chloroform] | 1 | 0.050 | 
25 | CC(=O)OC(C)C [Isopropyl acetate] |  |  | # dead at 24 h (compound alone, 1.00 mg): 1 and 2; Proportion dead at 24 hr (compound alone, 1.00 mg): 0.200
26 | CCCCCC [Hexanes (110-54-3) (0.80 mg), Hexanes] | 1 | 0.100 | 
